In ChEMBL document CHEMBL4270673, “Receptor-Ligand Interaction Measured by Inductively Coupled Plasma Mass Spectrometry and Selenium Labeling” (J Med Chem, 2018):
Where a SMILES comes first, the peptide text is derived from it. [ ]: non-standard residue; d: D form. The star is where a group is joined. SeMet = C[Se]CC[C@H](N)C(=O)O; X1 = O=C(C[Se]c1ccccc1)*; Ahx = NCCCCCC(=O)O

Key:
Vasopressin V1a receptor [1] = molecular target: T1, Vasopressin V1a receptor (Homo sapiens, UniProt P37288); test: Displacement of [125I]OH-Phpa-LVA from human V1A receptor expressed in CHO cells after 4 hrs by gamma counter analysis; format: cell-based
Target sequence in this assay (P37288 whole entry): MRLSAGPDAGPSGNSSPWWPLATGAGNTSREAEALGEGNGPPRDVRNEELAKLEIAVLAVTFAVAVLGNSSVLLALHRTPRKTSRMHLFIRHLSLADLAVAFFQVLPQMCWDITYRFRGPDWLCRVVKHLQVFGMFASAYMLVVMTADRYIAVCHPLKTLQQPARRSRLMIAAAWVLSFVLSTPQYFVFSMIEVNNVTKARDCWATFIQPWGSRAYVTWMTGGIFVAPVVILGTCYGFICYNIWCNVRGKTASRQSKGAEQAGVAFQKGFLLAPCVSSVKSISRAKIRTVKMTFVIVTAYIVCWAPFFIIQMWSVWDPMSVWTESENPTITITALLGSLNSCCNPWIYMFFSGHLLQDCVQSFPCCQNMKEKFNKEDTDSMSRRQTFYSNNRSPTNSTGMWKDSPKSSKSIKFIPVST

Vasopressin V1a receptor [2] = molecular target: T1, Vasopressin V1a receptor; test: Displacement of [Se-Se]-AVP from human V1A receptor expressed in CHO cells after 4 hrs by RP-LC-ICPMS analysis; format: cell-based
Target sequence in this assay (P37288 whole entry): as above

[3] = molecular target: T2, Gastrin/cholecystokinin type B receptor (Homo sapiens, UniProt P32239); test: Binding affinity to CCKB receptor (unknown origin) expressed in HEK cells after 4 hrs by RP-LC-ICPMS analysis; format: cell-based
T2 sequence (P32239 whole entry): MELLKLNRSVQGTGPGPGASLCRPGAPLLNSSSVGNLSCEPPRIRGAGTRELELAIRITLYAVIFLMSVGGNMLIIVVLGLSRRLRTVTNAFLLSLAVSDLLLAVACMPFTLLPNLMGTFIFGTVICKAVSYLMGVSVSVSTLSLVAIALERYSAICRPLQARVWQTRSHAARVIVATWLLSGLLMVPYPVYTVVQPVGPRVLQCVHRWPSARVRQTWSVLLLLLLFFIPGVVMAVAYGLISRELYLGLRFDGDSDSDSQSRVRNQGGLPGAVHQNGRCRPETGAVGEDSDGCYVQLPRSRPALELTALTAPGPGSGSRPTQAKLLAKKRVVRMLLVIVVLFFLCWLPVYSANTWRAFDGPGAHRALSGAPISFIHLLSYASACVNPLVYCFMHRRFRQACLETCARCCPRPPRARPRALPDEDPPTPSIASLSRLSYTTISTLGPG

[4] = molecular target: T2, Gastrin/cholecystokinin type B receptor; test: Displacement of non-sulfated CCK-8 from CCKB receptor (unknown origin) expressed in HEK cells after 4 hrs by RP-LC-ICPMS analysis; format: cell-based
Vasopressin V1a receptor [5] = molecular target: T1, Vasopressin V1a receptor; test: Binding affinity to human V1A receptor expressed in CHO cell membranes
Target sequence in this assay (P37288 whole entry): as the sequence (P37288 whole entry) above

Vasopressin V1a receptor [6] = molecular target: T1, Vasopressin V1a receptor; test: Binding affinity to human V1A receptor expressed in CHO cells assessed per million cells after 4 hrs by RP-LC-ICPMS analysis; format: cell-based
Target sequence in this assay (P37288 whole entry, looked up): as the sequence (P37288 whole entry) above

Vasopressin V1a receptor [7] = molecular target: T1, Vasopressin V1a receptor; test: Binding affinity to human V1A receptor expressed in CHO cells after 4 hrs by RP-LC-ICPMS analysis; format: cell-based
Target sequence in this assay (P37288 whole entry): as the sequence (P37288 whole entry) above

Vasopressin V1a receptor [8] = molecular target: T1, Vasopressin V1a receptor; test: Displacement of [Sez6]-HO-Phpa-LVA from human V1A receptor expressed in CHO cells after 4 hrs by RP-LC-ICPMS analysis; format: cell-based
Target sequence in this assay (P37288 whole entry): as the sequence (P37288 whole entry) above

Vasopressin V1a receptor [9] = molecular target: T1, Vasopressin V1a receptor; test: Displacement of [Ph-Se-acetyl]-LVA from human V1A receptor expressed in CHO cells after 4 hrs by RP-LC-ICPMS analysis; format: cell-based
Target sequence in this assay (P37288 whole entry): as the sequence (P37288 whole entry) above

| Structure (SMILES) | Ki (Vasopressin V1a receptor [1]) [nM] | Ki (Vasopressin V1a receptor [2]) [nM] | Bmax (Vasopressin V1a receptor [6]) [fmol] | also measured |
| --- | --- | --- | --- | --- |
| CCOc1ccc2c(c1)[C@]1(CC[C@H](OCCN3CCOCC3)CC1)C(=O)N2S(=O)(=O)c1ccc(C(=O)NC(C)(C)C)cc1OC | 304 | 2950 |  |  |
| N=C(N)NCCC[C@H](NC(=O)[C@@H]1CCCN1C(=O)[C@@H]1C[Se]C[C@H](N)C(=O)N[C@@H](Cc2ccc(O)cc2)C(=O)N[C@@H](Cc2ccccc2)C(=O)N[C@@H](CCC(N)=O)C(=O)N[C@@H](CC(N)=O)C(=O)N1)C(=O)NCC(N)=O | 1280 |  |  |  |
| CSCC[C@H](NC(=O)[C@H](Cc1c[nH]c2ccccc12)NC(=O)CCCCCNC(=O)[C@H](CCCNC(=N)N)NC(=O)[C@H](CC[Se]C)NC(C)=O)C(=O)N[C@@H](CC(=O)O)C(=O)N[C@@H](Cc1ccccc1)C(N)=O (Ac-[SeMet]R[Ahx]WMDF-NH2) |  |  |  | Kd [3]: 45.5 nM; Ki [4]: 3.91 nM |
| N=C(N)NCCC[C@H](NC(=O)[C@@H]1CCCN1C(=O)[C@@H]1C[Se][Se]C[C@H](N)C(=O)N[C@@H](Cc2ccc(O)cc2)C(=O)N[C@@H](Cc2ccccc2)C(=O)N[C@@H](CCC(N)=O)C(=O)N[C@@H](CC(N)=O)C(=O)N1)C(=O)NCC(N)=O | 0.7 | 1.7 |  | Kd (Vasopressin V1a receptor [5]): 0.6 to 3 nM |
| COc1ccc(C[C@@H](NC(=O)CCc2ccc(O)cc2)C(=O)N[C@@H](Cc2ccccc2)C(=O)N[C@@H](CCC(N)=O)C(=O)N[C@@H](CC(N)=O)C(=O)N[C@@H](CCCNC(=N)N)C(=O)N2CCC[C@H]2C(=O)N[C@@H](CCCNC(=N)N)C(N)=O)cc1 | 0.8 | 0.2 |  |  |
| N=C(N)NCCC[C@@H](NC(=O)[C@@H]1CCCN1C(=O)[C@@H]1C[Se][Se]C[C@H](N)C(=O)N[C@@H](Cc2ccc(O)cc2)C(=O)N[C@@H](Cc2ccccc2)C(=O)N[C@@H](CCC(N)=O)C(=O)N[C@@H](CC(N)=O)C(=O)N1)C(=O)NCC(N)=O |  |  | 1060 |  |
| COc1ccc(C[C@@H](NC(=O)CCc2ccc(O)cc2)C(=O)N[C@@H](Cc2ccccc2)C(=O)N[C@@H](CCC(N)=O)C(=O)N[C@@H](CC(N)=O)C(=O)N[C@@H](CCCNC(=N)N)C(=O)N2C[Se]C[C@H]2C(=O)N[C@@H](CCCNC(=N)N)C(N)=O)cc1 | 0.9 | 0.4 | 845 | Kd (Vasopressin V1a receptor [7]): 0.45 nM; Ki (Vasopressin V1a receptor [8]): 3.8 nM |
| COc1ccc(C[C@@H](NC(=O)C[Se]c2ccc(O)cc2)C(=O)N[C@@H](Cc2ccccc2)C(=O)N[C@@H](CCC(N)=O)C(=O)N[C@@H](CC(N)=O)C(=O)N[C@@H](CCCNC(=N)N)C(=O)N2CCC[C@H]2C(=O)N[C@@H](CCCNC(=N)N)C(N)=O)cc1 | 0.9 |  | 696 | Kd (Vasopressin V1a receptor [7]): 0.32 nM; Ki (Vasopressin V1a receptor [9]): 12.9 nM |
| CSCC[C@H](NC(=O)[C@H](Cc1c[nH]c2ccccc12)NC(=O)CCCCCNC(=O)[C@H](CCCNC(=N)N)NC(=O)C[Se]c1ccccc1)C(=O)N[C@@H](CC(=O)O)C(=O)N[C@@H](Cc1ccccc1)C(N)=O (X1-R[Ahx]WMDF-NH2) |  |  |  | Kd [3]: 29.3 nM; Ki [4]: 7.93 nM |
